Assay results taken from patent publication US10899709B2, “Novel-alkynyl-substituted 3-phenylpyrrolidine-2,4-diones and use thereof as herbicides” (BAYER CROPSCIENCE AKTIENGESELLSCHAFT, priority 2015, dated 2021).

How the values were obtained:
Format in all cases: in vivo
[1] = test system: Lolium multiflorum; test: Post-emergence herbicidal effect; conditions: visual assessment after about 3 weeks
Protocol: (§1) Seeds of monocotyledonous and dicotyledonous weed and crop plants are laid out in sandy loam in wood-fibre pots, covered with soil and cultivated in a greenhouse under good growth conditions. 2 to 3 weeks after sowing, the test plants are treated at the one-leaf stage. The compounds according to the invention, formulated in the form of wettable powders (WP) or as emulsion concentrates (EC), are then sprayed as aqueous suspension or emulsion at a water application rate of 600 to 800 l/ha (converted) with the addition of 0.2% of wetting agent onto the green parts of the plants. After the test plants have been left to stand in the greenhouse under optimal growth conditions for about 3 weeks, the action of the preparations is assessed visually in comparison to untreated controls (herbicidal action in percent (%): 100% activity=the plants have died, 0% activity=like control plants).

[2] = test system: Setaria viridis; test: Post-emergence herbicidal effect; conditions: visual assessment after about 3 weeks
Protocol: as §1

[3] = test system: Echinochloa crus-galli; test: Post-emergence herbicidal effect; conditions: visual assessment after about 3 weeks
Protocol: as §1

[4] = test system: Alopecurus myosuroides; test: Post-emergence herbicidal effect; conditions: for Post-emergence effectiveness ALOMY: visual assessment after about 3 weeks
Protocol: as §1

[5] = test system: Lolium multiflorum; test: Pre-emergence herbicidal effect; conditions: visual score after 3 weeks
Text: (§2) Seeds of monocotyledonous and dicotyledonous weed plants and crop plants are laid out in wood-fibre pots in sandy loam and covered with soil. The compounds according to the invention formulated in the form of wettable powders (WP) or as emulsion concentrates (EC) are then applied as aqueous suspension or emulsion at a water application rate of 600 to 800 l/ha (converted) with the addition of 0.2% wetting agent to the surface of the covering soil. After the treatment, the pots are placed in a greenhouse and kept under good growth conditions for the trial plants. The damage to the test plants is scored visually after a test period of 3 weeks by comparison with untreated controls (herbicidal activity in percent (%): 100% activity=the plants have died, 0% activity=like control plants).

[6] = test system: Setaria viridis; test: Pre-emergence herbicidal effect; conditions: for Pre-emergence effectiveness SETVI: visual score after 3 weeks; for Comparison data for pre-emergence effectiveness SETVI: 20 g a.i./ha
Text: as §2

[7] = test system: Cyperus esculentus; test: Pre-emergence herbicidal effect; conditions: for Pre-emergence effectiveness CYPES: 320 g/ha, visual score after 3 weeks; for Comparison data for pre-emergence effectiveness CYPES: 20 g a.i./ha
Text: as §2

[8] = test system: Echinochloa crus-galli; test: Pre-emergence herbicidal effect; conditions: visual score after 3 weeks
Text: as §2

[9] = test system: Alopecurus myosuroides; test: Pre-emergence herbicidal effect; conditions: visual score after 3 weeks
Text: as §2

[10] = test system: Avena fatua; test: Post-emergence herbicidal effect; conditions: for Post-emergence effectiveness AVEFA: visual assessment after about 3 weeks
Protocol: as §1

[11] = test system: Avena fatua; test: Pre-emergence herbicidal effect; conditions: for Pre-emergence effectiveness AVEFA: visual score after 3 weeks; for Comparison data for pre-emergence effectiveness AVEFA: 20 g a.i./ha
Text: as §2

[12] = test system: Veronica persica; test: Pre-emergence herbicidal effect; conditions: 320 g/ha, visual score after 3 weeks
Text: as §2

[13] = test system: PHBPU; test: Post-emergence herbicidal effect; conditions: 20 g a.i./ha
Protocol: as §1

| SMILES | Post-emergence effectiveness LOLMU ([1]; 20 g/ha) [%] | Post-emergence effectiveness LOLMU ([1]; 80 g/ha) [%] | Post-emergence effectiveness SETVI ([2]; 20 g/ha) [%] | Post-emergence effectiveness SETVI ([2]; 80 g/ha) [%] | Post-emergence effectiveness ECHCG ([3]; 20 g/ha) [%] | Post-emergence effectiveness ECHCG ([3]; 80 g/ha) [%] | Post-emergence effectiveness ALOMY ([4]; 80 g/ha) [%] | Pre-emergence effectiveness LOLMU ([5]; 80 g/ha) [%] | Pre-emergence effectiveness LOLMU ([5]; 320 g/ha) [%] | Pre-emergence effectiveness SETVI ([6]; 80 g/ha) [%] | Pre-emergence effectiveness SETVI ([6]; 320 g/ha) [%] | Pre-emergence effectiveness CYPES [7] [%] | Pre-emergence effectiveness ECHCG ([8]; 80 g/ha) [%] | Pre-emergence effectiveness ECHCG ([8]; 320 g/ha) [%] | Pre-emergence effectiveness ALOMY ([9]; 80 g/ha) [%] | Pre-emergence effectiveness ALOMY ([9]; 320 g/ha) [%] | Post-emergence effectiveness AVEFA ([10]; 80 g/ha) [%] | Post-emergence effectiveness ALOMY ([4]; 20 g/ha) [%] | Pre-emergence effectiveness AVEFA ([11]; 80 g/ha) [%] | Pre-emergence effectiveness AVEFA ([11]; 320 g/ha) [%] | also measured |
| --- | --- | --- | --- | --- | --- | --- | --- | --- | --- | --- | --- | --- | --- | --- | --- | --- | --- | --- | --- | --- | --- |
| CCc1cc(C#CC2CC2)cc(C)c1C1=C(OC(=O)C(C)C)C2(CCC(COC)C2)NC1=O (mixture of isomers) [Example Ia-10] | 80 | 90 | 100 | 100 | 90 | 90 | 80 | 80 | 100 | 90 | 100 | 80 | 100 | 100 | 90 | 100 |  |  |  |  |  |
| CC#Cc1cc(C)c(C2=C(O)C3(CCC(CCOC)CC3)NC2=O)c(CC)c1 (stereo not drawn) [Example I-2] | 90 | 100 | 100 | 100 | 100 | 100 | 100 | 100 | 100 | 100 | 100 | 100 | 100 | 100 | 100 | 100 | 100 | 90 | 80 | 100 | Post-emergence effectiveness AVEFA ([10]; 20 g/ha): 90%; Pre-emergence effectiveness VERPE [12]: 100% |
| COCC1CCC2(CC1)NC(=O)C(c1c(C)cc(C#CC3CC3)cc1C)=C2O (stereo not drawn) [Example I-8] | 90 | 90 | 100 | 100 | 100 | 100 | 100 | 90 | 100 | 80 | 90 |  | 100 | 100 | 90 | 100 | 80 | 90 |  |  | Pre-emergence effectiveness VERPE [12]: 90% |
| CCc1cc(C#CC2CC2)cc(C)c1C1=C(O)C2(CCC(COC)C2)NC1=O (stereo not drawn) [Example I-11] | 90 | 100 | 100 | 100 | 100 | 100 | 100 | 100 | 100 | 90 | 100 | 100 | 100 | 100 | 100 | 100 | 100 | 80 |  | 80 | Post-emergence effectiveness AVEFA ([10]; 20 g/ha): 80%; Pre-emergence effectiveness VERPE [12]: 80% |
| CCc1cc(C#CC2CC2)cc(C)c1C1=C(O)C2(CCC(COC)C2)NC1=O (stereo not drawn) [Example I-12] |  | 90 | 100 | 100 | 100 | 100 | 90 | 100 | 100 | 90 | 100 |  | 90 | 100 |  | 100 | 80 |  | 100 | 80 | Post-emergence effectiveness AVEFA ([10]; 20 g/ha): 80% |
| CCOC(=O)OC1=C(c2c(C)cc(C#CC3CC3)cc2CC)C(=O)N[C@]12CC[C@H](COC)C2 [Example Ia-1] |  |  |  | 90 | 90 | 100 | 80 | 100 | 100 | 100 | 100 |  | 100 | 100 | 90 | 100 |  |  | 80 | 90 | Pre-emergence effectiveness VERPE [12]: 90% |
| CCOC(=O)OC1=C(c2c(C)cc(C#CC3CC3)cc2C)C(=O)NC12CCC(COC)C2 (stereo not drawn) [Example Ia-2] |  |  |  | 80 |  | 80 |  |  | 80 | 90 | 100 | 100 | 100 | 100 | 80 | 100 |  |  |  |  |  |
| CC#Cc1cc(C)c(C2=C(OC(=O)C(C)C)C3(CCC(COC)C3)NC2=O)c(CC)c1 (stereo not drawn) [Example Ia-8] | 100 | 100 | 100 | 100 | 100 | 100 | 100 | 100 | 100 | 80 | 100 |  | 100 | 100 | 100 | 100 | 100 | 100 | 90 | 90 |  |
| CCc1cc(C#CC2CC2)cc(C)c1C1=C(OC(=O)C(C)C)C2(CCC(COC)C2)NC1=O (stereo not drawn) [Example Ia-12] | 90 | 100 | 100 | 100 | 100 | 100 | 90 | 100 | 100 | 90 | 100 |  | 100 | 100 | 100 | 100 | 100 | 90 |  | 90 | Post-emergence effectiveness AVEFA ([10]; 20 g/ha): 100% |
| CC#Cc1cc(C)c(C2=C(OC(=O)OCC)C3(CCC(OCCOC)CC3)NC2=O)c(CC)c1 (stereo not drawn) [Ia-14] |  |  |  |  |  |  |  | 90 | 100 | 100 | 100 | 100 | 100 | 100 | 80 | 100 |  |  | 80 | 80 |  |
| CC#Cc1cc(C)c(C2=C(OC(=O)OCC)C3(CCC(COC)CC3)NC2=O)c(CC)c1 (stereo not drawn) [Ia-17] |  |  |  |  |  |  |  |  |  |  |  |  |  |  |  |  |  |  |  |  | Comparison data for pre-emergence effectiveness SETVI [6]: 100%; Comparison data for pre-emergence effectiveness CYPES [7]: 100%; Comparison data for pre-emergence effectiveness AVEFA [11]: 60% |
| CC#Cc1cc(C)c(C2=C(OC(=O)OCC)C3(CCC(OC)CC3)NC2=O)c(CC)c1 (stereo not drawn) [WO 2015/040114, reference compound] |  |  |  |  |  |  |  |  |  |  |  |  |  |  |  |  |  |  |  |  | Comparison data for post-emergence effect PHBPU [13]: 0%; Comparison data for post-emergence effect AVEFA ([10]; 20 g a.i./ha): 70%; Comparison data for post-emergence effect ALOMY ([4]; 20 g a.i./ha): 80%; Comparison data for pre-emergence effectiveness SETVI [6]: 80%; Comparison data for pre-emergence effectiveness CYPES [7]: 0%; Comparison data for pre-emergence effectiveness AVEFA [11]: 50% |
